This is an account of results in patent US20240417411A1, “COMPOUNDS AND METHODS FOR TREATMENT OF VIRAL INFECTIONS” (priority 2023, published 2024).

The nature of data set [1]: in vitro. The data set is classed as in vitro ADME. The settings on record: human, s9, pH 7.4. On the procedure:
Example D: GI S9 Stability […] The S9 metabolic reactions were initiated by the addition of the substrates to the S9 reaction mixture to a final concentration of 2 μM. […] Aliquots ([…]) of the diluted supernatant were analyzed on a Thermo Q-Exactive mass spectrometer as described below. Example F: Liquid Chromatography/Mass Spectroscopy Methods for S9 and Plasma Stability Quantification of test compounds, Reference Compound A (S9 stability assay nucleoside metabolite), and controls was performed by analyte/internal standard peak area ratio (PAR) values measured on a Thermo Q-Exactive mass spectrometer coupled to a Dionex UltiMate 3000 HPLC with a Leap Technologies HTC PAL autosampler. […] Mobile phase A consisted of 0.1% (v/v) formic acid in water. Mobile phase B consisted of 0.1% (v/v) formic acid in acetonitrile. Elution of analytes was achieved by a series of linear gradients of acetonitrile in water containing 0.10% (v/v) formic acid. The mass spectrometer was calibrated on a weekly basis and mass tolerance of 5 ppm was used.

Data set [2] can be described thus: in vitro. It is filed as cell-based. The settings on record: human. On the procedure: Example C: CC50 MT4 Cytotoxicity of the compounds was determined in uninfected cells using the cell viability reagent in a similar fashion as described before for other cell types ([…] et al., Antimicrob Agents Chemother. 2008,52(2):655-65). […] Cells were cultured for 4-5 days at 37° C. Following the incubation, the cells were allowed to equilibrate to 25° C., and cell viability was determined by adding Cell-Titer Glo viability reagent. The mixture was incubated for 10 min, and the luminescence signal was quantified using an Envision plate reader. Untreated cell and cells treated at 2 μM puromycin (Sigma, St. Louis, MO) serve as 100% and 0% cell viability control, respectively. The percent of cell viability was calculated for each tested compound concentration relative to the 0% and 100% controls and the CC50 value was determined by non-linear regression as a compound concentration reducing the cell viability by 50%.

Data set [3] relates to SARS-CoV2-NLuc. Briefly: microbe, parasite or virus in culture. It is filed as cell-based, SARS Coronavirus 2. The settings on record: Severe acute respiratory syndrome coronavirus 2, 48 h, read-out: SARS-CoV2 EC50 (nM).
Data set [4] concerns RSV-Luc5. Description: microbe, parasite or virus in culture. The data set is classed as cell-based. The settings on record: human respiratory syncytial virus, NHBE, 72 h, read-out: RSV NHBE EC50 (nM).
In data set [5] the test system is Caco-2 cells (clone C2BBe1). The settings on record: human, Caco-2.

By half-life is commonly meant the time in which the quantity being followed falls by half. Read a high half-life as slow decline. A word on the CC50: it is the concentration that lowers cell viability or growth by half. Higher therefore signals lower toxicity to the cells. As a reminder, the EC50 is the concentration giving half of the maximal effect.

Structures are written as SMILES.

Take `CC(C)OC(=O)OC[C@H]1O[C@@](C#N)(c2ccc3c(N)ncnn23)[C@@H]2OC(=O)CCCCCCC(=O)O[C@@H]21` [Compound C5, ((10aR,11R,13R,13aR)-13-(4-aminopyrrolo[2,1-f][1,2,4]triazin-7-yl)-13-cyano-2,9-dioxododecahydrofuro[3,4-b][1,4]dioxacyclododecin-11-yl)methyl isopropyl carbonate]: the half-life at 2 μM in data set [1] stood at 0.754 min. In data set [2], the 50% cytotoxic concentration (CC50) was > 50 µM.

`CCOC(=O)C(C)(C)OC(=O)OC[C@H]1O[C@@](C#N)(c2ccc3c(N)ncnn23)[C@@H]2OC(=O)CC(C)(C)CC(=O)O[C@@H]21` [Compound C43, ethyl 2-(((((7aR,8R,10R,10aR)-10-(4-aminopyrrolo[2,1-f][1,2,4]triazin-7-yl)-10-cyano-4,4-dimethyl-2,6-dioxooctahydro-2H-furo[3,4-b][1,4]dioxonin-8-yl)methoxy)carbonyl)oxy)-2-methylpropanoate]: the concentration giving a half-maximal response (EC50) in data set [3] and in data set [4] was > 50000 nM throughout. This compound also registered a half-life at 2 μM in data set [1] of 19.7 min. Also, the CC50 in data set [2] is > 50 µM. In addition, the “Caco2 A to B” value in data set [5] came to 2.93. In data set [5], the “Caco2 B to A” value was 11.62.

For `CC1(C)CC(=O)O[C@H]2[C@@H](OC(=O)C1)[C@](C#N)(c1ccc3c(N)ncnn13)O[C@@H]2COC(=O)OC(C)(C)C(F)F` [Compound C42, ((7aR,8R,10R,10aR)-10-(4-aminopyrrolo[2,1-f][1,2,4]triazin-7-yl)-10-cyano-4,4-dimethyl-2,6-dioxooctahydro-2H-furo[3,4-b][1,4]dioxonin-8-yl)methyl (1,1-difluoro-2-methylpropan-2-yl) carbonate], the concentration for a half-maximal effect (EC50) in data set [3] and in data set [4] was > 50000 nM each time. The compound further yielded a half-life at 2 μM in data set [1] of 27.7 min. In addition, the CC50 in data set [2] is > 50 µM.

Turning to `CCC(CC)COC(=O)OC[C@H]1O[C@@](C#N)(c2ccc3c(N)ncnn23)[C@@H]2OC(=O)CC(C)(C)CC(=O)O[C@@H]21` [Compound C38, ((7aR,8R,10R,10aR)-10-(4-aminopyrrolo[2,1-f][1,2,4]triazin-7-yl)-10-cyano-4,4-dimethyl-2,6-dioxooctahydro-2H-furo[3,4-b][1,4]dioxonin-8-yl)methyl (2-ethylbutyl) carbonate], the half-maximal effective concentration (EC50) in data set [3] was 38300 nM; in data set [4] it was > 50000 nM. Moreover, the half-life at 2 μM in data set [1] is 7.17 min. This compound also came in with a CC50 in data set [2] of 30.9 µM.

Regarding `CC1(C)[C@H]2CC[C@@](C)(C2)[C@H]1OC(=O)OC[C@H]1O[C@@](C#N)(c2ccc3c(N)ncnn23)[C@@H]2OC(=O)CCCC(=O)O[C@@H]21` [Compound C28, ((7aR,8R,10R,10aR)-10-(4-aminopyrrolo[2,1-f][1,2,4]triazin-7-yl)-10-cyano-2,6-dioxooctahydro-2H-furo[3,4-b][1,4]dioxonin-8-yl)methyl ((1S,2R,4S)-1,3,3-trimethylbicyclo[2.2.1]heptan-2-yl) carbonate], the EC50 in data set [3] is 21700 nM; in data set [4] it was 7110 nM. Also, the half-life at 2 μM in data set [1] came to 0.595 min. Further, it took 18 µM to reach half-maximal cytotoxicity in data set [2] (CC50).

Turning to `CC1(C)CC(=O)O[C@H]2[C@@H](OC(=O)C1)[C@](C#N)(c1ccc3c(N)ncnn13)O[C@@H]2COC(=O)OCCN1CCOCC1` [Compound C36, ((7aR,8R,10R,10aR)-10-(4-aminopyrrolo[2,1-f][1,2,4]triazin-7-yl)-10-cyano-4,4-dimethyl-2,6-dioxooctahydro-2H-furo[3,4-b][1,4]dioxonin-8-yl)methyl (2-morpholinoethyl) carbonate], the 50% effective concentration (EC50) in data set [3] and in data set [4] was > 50000 nM throughout. The same compound came in with a half-life at 2 μM in data set [1] of 31.6 min. For the same compound, the CC50 in data set [2] was > 50 µM.

With `CC(C)OC(=O)OC[C@H]1O[C@@](C#N)(c2ccc3c(N)ncnn23)C2OC(=O)CCC(=O)OC21` (stereo partly drawn) [Compound C1, ((7R,9R)-9-(4-aminopyrrolo[2,1-f][1,2,4]triazin-7-yl)-9-cyano-2,5-dioxooctahydrofuro[3,4-b][1,4]dioxocin-7-yl)methyl isopropyl carbonate], the half-life at 2 μM in data set [1] came to 0.716 min. The 50% cytotoxic concentration (CC50) in data set [2] is > 50 µM.

`CC1(C)CC(=O)O[C@H]2[C@@H](OC(=O)C1)[C@](C#N)(c1ccc3c(N)ncnn13)O[C@@H]2COC(=O)OCC1(C#N)CC1` [Compound C41, ((7aR,8R,10R,10aR)-10-(4-aminopyrrolo[2,1-f][1,2,4]triazin-7-yl)-10-cyano-4,4-dimethyl-2,6-dioxooctahydro-2H-furo[3,4-b][1,4]dioxonin-8-yl)methyl ((1-cyanocyclopropyl)methyl) carbonate]: the EC50 in data set [3] and in data set [4] was > 50000 nM in each case. In data set [1], this compound showed a half-life at 2 μM of 4.17 min. The cytotoxic concentration (CC50) in data set [2] is > 50 µM. For the same compound, the “Caco2 A to B” value in data set [5] was found to be 0.54. Besides, in data set [5], the “Caco2 B to A” value is on record as 6.77.

`CC1(C)CC(=O)O[C@H]2[C@@H](OC(=O)C1)[C@](C#N)(c1ccc3c(N)ncnn13)O[C@@H]2COC(=O)O[C@H]1C(C)(C)[C@H]2CC[C@@]1(C)C2` [Compound C45, ((7aR,8R,10R,10aR)-10-(4-aminopyrrolo[2,1-f][1,2,4]triazin-7-yl)-10-cyano-4,4-dimethyl-2,6-dioxooctahydro-2H-furo[3,4-b][1,4]dioxonin-8-yl)methyl ((1S,2R,4S)-1,3,3-trimethylbicyclo[2.2.1]heptan-2-yl) carbonate]: the figures for the EC50 in data set [3] and in data set [4] were 9170 nM and 4160 nM, respectively. In data set [1], this compound showed a half-life at 2 μM of 37.3 min. In data set [2], this compound returned a CC50 of 12.6 µM.

`N#C[C@@]1(c2ccc3c(N)ncnn23)O[C@H](COC(=O)OC2CNC2)[C@H]2OC(=O)CCCC(=O)O[C@H]21` [Compound C50, ((7aR,8R,10R,10aR)-10-(4-aminopyrrolo[2,1-f][1,2,4]triazin-7-yl)-10-cyano-2,6-dioxooctahydro-2H-furo[3,4-b][1,4]dioxonin-8-yl)methyl azetidin-3-yl carbonate 2,2,2-trifluoroacetate]: the values for the EC50 in data set [3] and in data set [4] were 3110 nM and 14500 nM, respectively. The same compound yielded a half-life at 2 μM in data set [1] of 1.91 min. Besides, the CC50 in data set [2] was > 50 µM.

As to `CC1(C)CC(=O)O[C@H]2[C@@H](OC(=O)C1)[C@](C#N)(c1ccc3c(N)ncnn13)O[C@@H]2COC(=O)OC1CNC1` [Compound C51, ((7aR,8R,10R,10aR)-10-(4-aminopyrrolo[2,1-f][1,2,4]triazin-7-yl)-10-cyano-4,4-dimethyl-2,6-dioxooctahydro-2H-furo[3,4-b][1,4]dioxonin-8-yl)methyl azetidin-3-yl carbonate 2,2,2-trifluoroacetate], the 50% effective concentration (EC50) in data set [3] and in data set [4] was > 50000 nM each time. The compound also had a half-life at 2 μM in data set [1] of 26.6 min. Besides, the half-maximal cytotoxic concentration (CC50) in data set [2] is > 50 µM.

As to `N#C[C@@]1(c2ccc3c(N)ncnn23)O[C@H](CO)[C@H]2OC(=O)CCCC(=O)O[C@H]21` [Compound C10, (7aR,8R,10R,10aR)-8-(4-aminopyrrolo[2,1-f][1,2,4]triazin-7-yl)-10-(hydroxymethyl)-2,6-dioxooctahydro-2H-furo[3,4-b][1,4]dioxonine-8-carbonitrile], in data set [1], the half-life at 2 μM was 0.768 min. Also, the CC50 in data set [2] is > 50 µM.

As for `CC1(C)CC(=O)O[C@H]2[C@@H](OC(=O)C1)[C@](C#N)(c1ccc3c(N)ncnn13)O[C@@H]2COC(=O)OC(C)(C)c1ccncc1` [Compound C34, ((7aR,8R,10R,10aR)-10-(4-aminopyrrolo[2,1-f][1,2,4]triazin-7-yl)-10-cyano-4,4-dimethyl-2,6-dioxooctahydro-2H-furo[3,4-b][1,4]dioxonin-8-yl)methyl (2-(pyridin-4-yl)propan-2-yl) carbonate], the half-maximal effective concentration (EC50) is 8120 nM in data set [3] and > 50000 nM in data set [4]. In data set [1], this compound displayed a half-life at 2 μM of 44.7 min. The CC50 in data set [2] is > 50 µM.

In the case of `CC(C)(C)COC(=O)OC[C@H]1O[C@@](C#N)(c2ccc3c(N)ncnn23)[C@@H]2OC(=O)CC(C)(C)CC(=O)O[C@@H]21` [Compound C46, ((7aR,8R,10R,10aR)-10-(4-aminopyrrolo[2,1-f][1,2,4]triazin-7-yl)-10-cyano-4,4-dimethyl-2,6-dioxooctahydro-2H-furo[3,4-b][1,4]dioxonin-8-yl)methyl neopentyl carbonate], the concentration for a half-maximal effect (EC50) in data set [3] is > 50000 nM; in data set [4], 11700 nM. Further, in data set [1], the half-life at 2 μM stood at 4.71 min. Moreover, the cytotoxic concentration (CC50) in data set [2] was > 50 µM.
